Data reported in US20060008512A1, “Composition and methods for improved animal performance” (priority 2004, published 2006).
Where two headings read alike, the source gives them in different places.

Legend:
[1] = daily injections of 150 mcg/kg body weight; cited from earlier work
[2] = system: Hy-Line W-36 White Leghorn hens; conditions: for Egg Shell, % (washed, dried): 10 mg/kg of feed, 6 & 10 d rooms combined
Experimental: Experiment 2. […] The photoperiod was 17 hours of light per day (0330 hours to 2030 hours).
The objective was to use T4 to humanely induce molting in hens that are continuously provided with ad libitum access to palatable feed meeting or exceeding all National Research Council (1994) standards. Developing a fully efficacious yet affordable molting protocol was predicated on determining the minimum effective level for T4 supplementation. Factors that potentially may affect the required level of T4 supplementation include: (1) uncertainty regarding the efficiency of T4 absorption by the gastrointestinal tract, (2) the possibility that continuous dietary ingestion of T4 could trigger substantially different biological responses when compared single daily injections, and (3) the likelihood that daily T4 intake would diminish in parallel with molt-related reductions in feed intake associated with cessation in egg production. A spontaneous and voluntary loss of appetite (anorexia) commonly accompanies seasonal molting and broodiness in a variety of avian species (Berry, 2003; Webster, 2003). Accordingly, the responses of hens to diets containing 10, 20, and 40 mg T4/kg, to bracket the anticipated range of T4 needed to cause an effective molt, were determined.

[3] = 10 mg/kg of feed 6 d from day 5, Day 7
[4] = 10 mg/kg of feed 6 d from day 5, Day 10
[5] = 10 mg/kg of feed 6 d from day 5, Day 14
[6] = 10 mg/kg of feed 6 d from day 5, Day 30
[7] = 10 mg/kg of feed 10 d from day 5, Day 7
[8] = 10 mg/kg of feed 10 d from day 5, Day 10
[9] = 10 mg/kg of feed 10 d from day 5, Day 14
[10] = 10 mg/kg of feed 10 d from day 5, Day 30
[11] = 20 mg/kg of feed 6 d from day 5, Day 7
[12] = 20 mg/kg of feed 6 d from day 5, Day 10
[13] = 20 mg/kg of feed 6 d from day 5, Day 14
[14] = 20 mg/kg of feed 6 d from day 5, Day 30

N[C@@H](Cc1cc(I)c(Oc2cc(I)c(O)c(I)c2)c(I)c1)C(=O)O [L-thyroxine, 3,5,3′,5′-tetraiodo-L-thyronine]
Decrease in fiber diameter [1]: 7.8%
Increase in mohair length growth rate [1]: 15%
Onset of molt after T4 feeding was initiated ([2]; 10 mg T4/kg, 10 days on test diets, half of the hens): 11 days
Body weight (BW) ([2]; 10 mg/kg of feed 6 d from day 5, Day 1): 1501 g
Body weight (BW) [2, 3]: 1377 g
Body weight change from day 1 (% BWC) [2, 3]: −8.3%
Body weight (BW) [2, 4]: 1293 g
Body weight change from day 1 (% BWC) [2, 4]: −13.9%
Body weight (BW) [2, 5]: 1424 g
Body weight change from day 1 (% BWC) [2, 5]: −5.1%
Body weight (BW) [2, 6]: 1483 g
Body weight change from day 1 (% BWC) [2, 6]: −1.2%
Hen-day egg production ([2]; 10 mg/kg of feed 6 d from day 5, day 4): 75%
Hen-day egg production ([2]; 10 mg/kg of feed 6 d from day 5, day 6): 58%
Hen-day egg production ([2]; 10 mg/kg of feed 6 d from day 5, day 8): 25%
Hen-day egg production ([2]; 10 mg/kg of feed 6 d from day 5, day 10): 8%
Hen-day egg production ([2]; 10 mg/kg of feed 6 d from day 5, day 12): 17%
Hen-day egg production ([2]; 10 mg/kg of feed 6 d from day 5, day 14): 0%
Hen-day egg production ([2]; 10 mg/kg of feed 6 d from day 5, day 16): 33%
Hen-day egg production ([2]; 10 mg/kg of feed 6 d from day 5, day 18): 25%
Hen-day egg production ([2]; 10 mg/kg of feed 6 d from day 5, day 20): 58%
Hen-day egg production ([2]; 10 mg/kg of feed 6 d from day 5, day 22): 75%
Hen-day egg production ([2]; 10 mg/kg of feed 6 d from day 5, day 24): 83%
Hen-day egg production ([2]; 10 mg/kg of feed 6 d from day 5, day 26): 42%
Hen-day egg production ([2]; 10 mg/kg of feed 6 d from day 5, day 28): 83%
Hen-day egg production ([2]; 10 mg/kg of feed 6 d from day 5, day 30): 75%
Body weight (BW) ([2]; 10 mg/kg of feed 10 d from day 5, Day 1): 1477 g
Body weight (BW) [2, 7]: 1372 g
Body weight change from day 1 (% BWC) [2, 7]: −7.1%
Body weight (BW) [2, 8]: 1335 g
Body weight change from day 1 (% BWC) [2, 8]: −9.6%
Body weight (BW) [2, 9]: 1314 g
Body weight change from day 1 (% BWC) [2, 9]: −11.0%
Body weight (BW) [2, 10]: 1400 g
Body weight change from day 1 (% BWC) [2, 10]: −5.2%
Hen-day egg production ([2]; 10 mg/kg of feed 10 d from day 5, day 4): 58%
Hen-day egg production ([2]; 10 mg/kg of feed 10 d from day 5, day 6): 50%
Hen-day egg production ([2]; 10 mg/kg of feed 10 d from day 5, day 8): 42%
Hen-day egg production ([2]; 10 mg/kg of feed 10 d from day 5, day 10): 17%
Hen-day egg production ([2]; 10 mg/kg of feed 10 d from day 5, day 12): 17%
Hen-day egg production ([2]; 10 mg/kg of feed 10 d from day 5, day 14): 17%
Hen-day egg production ([2]; 10 mg/kg of feed 10 d from day 5, day 16): 17%
Hen-day egg production ([2]; 10 mg/kg of feed 10 d from day 5, day 18): 25%
Hen-day egg production ([2]; 10 mg/kg of feed 10 d from day 5, day 22): 33%
Hen-day egg production ([2]; 10 mg/kg of feed 10 d from day 5, day 24): 50%
Hen-day egg production ([2]; 10 mg/kg of feed 10 d from day 5, day 26): 25%
Hen-day egg production ([2]; 10 mg/kg of feed 10 d from day 5, day 28): 25%
Hen-day egg production ([2]; 10 mg/kg of feed 10 d from day 5, day 30): 33%
Egg Shell, % (washed, dried) ([2]; Days 2 to 4): 7.93 (n = 6) %
Egg Shell, % (washed, dried) ([2]; Days 5 to 6): 7.39 (n = 9) %
Egg Shell, % (washed, dried) ([2]; Days 7 to 8): 6.63 (n = 8) %
Body weight (BW) ([2]; 20 mg/kg of feed 6 d from day 5, Day 1): 1582 g
Body weight (BW) [2, 11]: 1434 g
Body weight change from day 1 (% BWC) [2, 11]: −9.4%
Body weight (BW) [2, 12]: 1373 g
Body weight change from day 1 (% BWC) [2, 12]: −13.2%
Body weight (BW) [2, 13]: 1491 g
Body weight change from day 1 (% BWC) [2, 13]: −3.9%
Body weight (BW) [2, 14]: 1521 g
Body weight change from day 1 (% BWC) [2, 14]: −3.9%
Hen-day egg production ([2]; 20 mg/kg of feed 6 d from day 5, day 4): 94%
Hen-day egg production ([2]; 20 mg/kg of feed 6 d from day 5, day 6): 69%
Hen-day egg production ([2]; 20 mg/kg of feed 6 d from day 5, day 8): 17%
Hen-day egg production ([2]; 20 mg/kg of feed 6 d from day 5, day 10): 0%
Hen-day egg production ([2]; 20 mg/kg of feed 6 d from day 5, day 12): 17%
Hen-day egg production ([2]; 20 mg/kg of feed 6 d from day 5, day 14): 14%
Hen-day egg production ([2]; 20 mg/kg of feed 6 d from day 5, day 16): 33%
